The values below come from patent US20210228523A1, “MODULATORS OF SESTRIN-GATOR2 INTERACTION AND USES THEREOF” (Navitor Pharmaceuticals, Inc., priority 2017, published 2021).

Molecules are shown by their SMILES.

In this test the test system is mTORC1 signaling pathway. Nature of the test: Western blot of mTORC1 substrates in crude synaptosomes from rat prefrontal cortex. The conditions noted are these: Example B, 1 hr after administration. It counts as in vivo. The procedure:
Study Design. Forty-eight (48) male Sprague Dawley rats weighing between 175 and 200 g were randomized into 8 study groups (n=6/group), following a 5-day acclimation period. On study day 0, rats in Groups 3 and 7 received a single dose of Sal while Groups 4 and 8 received a single dose of Ket (10 mg/kg) each by i.p. injection. The rats in Groups 1 and 5 received a single dose of Veh while Groups 2 and 6 received a single dose of NV-5138 (160 mg/kg) each by oral gavage. One hour after dosing, rats in Groups 1-4 were sacrificed by conscious decapitation and followed by collection of the PFC. Crude synaptosomes were prepared from the PFC and three mTORC1 substrates, pmTOR, pp70S6K and p4E-BP1, and corresponding total protein loading controls (mTOR, p70S6K, and GAPDH) were quantitated by WB. Twenty-four hours after dosing, rats in Groups 5-8 were sacrificed by conscious decapitation and collection of the PFC. Crude synaptosomes were prepared from the PFC and the synaptic proteins (GluR1 and PSD95), as well as the total protein loading control (GAPDH), were quantitated by WB.
Formulation of Ket and NV-5138 for Administration. Ket (Sigma, cat #K1884) was dissolved in Sal at a concentration of 10 mg/mL. A volume of 1 mL/kg was injected i.p. NV-5138 (Navitor, Lot #06) was prepared by dissolving in Veh at a concentration of 50 mg/mL. The dosing volume based on the weight of the animal (3.2 mL/kg) was administered by oral gavage. Test articles were prepared the day of dosing.
Prefrontal Cortex Synaptosome Preparations. The brain was dissected from rats in all groups (n=6/group) and rinsed in PBS. The PFC was collected as shown in FIG. 6 and homogenized at 4° C. in homogenization buffer (0.32 M sucrose, 20 mM HEPES at pH 7.4, 1 mM EDTA, 5 mM NaF, 1 mM NaVO3 and protease inhibitor cocktail (Roche; Ser. No. 19/543,200)). The homogenate was centrifuged for 10 min at 2,800 rpm at 4° C. after which the supernatant was removed and re-centrifuged at 12,000 rpm for 10 min at 4° C. The resulting pellet containing crude synaptosomes was re-suspended in Lysis buffer (50 mM Tris-HCl (pH 7.5), 150 mM NaCl, 1% Triton X-100, 0.1% SDS, 2 mM, EDTA, 1 mM NaVO3, 5 mM NaF and protease inhibitor cocktail) and sonicated on ice for 20 s at 50% amplitude. The protein concentration was determined by Bradford assay and all samples were mixed with loading buffer (60 mM Tris-HCl pH 6.8, 20 mM DTT, 2% SDS, 10% glycerol, 5% β-mercaptoethanol and 0.01% Bromophenol blue) and stored at -20° C. until WB analysis.
Western Blot Analysis: Western blot analysis for GluR1, PSD95 and GAPDH was performed as previously described. Briefly, synaptosomes preparations (15 μg total protein) were loaded into 10-15% SDS PAGE gel for electrophoresis and transferred to a polyvinylidene difluoride (PVDF) membrane in transfer buffer (10× premixed electrophoresis buffer contains 25 mM Tris, 192 mM glycine, pH 8.3; Bio-Rad). […] After final three washes with PBS-T buffer, bands were detected using enhanced chemiluminescence. […]
(In western blotting, separated proteins are transferred to a membrane and probed.)

With `CNC1(c2ccccc2Cl)CCCCC1=O` (centres unmarked) [Ket, ketamine, reference compound], under “Ket 10 mg/kg i.p.”, the “levels of p4E-BP1 in crude PFC synaptosomes” value was “significantly increased” and the “levels of pmTOR in crude PFC synaptosomes” value was “significantly increased”.
Turning to `CC(C)(C[C@H](N)C(=O)O)C(F)F` [NV-5138], under “NV-5138 160 mg/kg oral”, the “levels of p4E-BP1 in crude PFC synaptosomes” value was “significantly increased”, the “levels of pmTOR in crude PFC synaptosomes” value is “significantly increased” and the “levels of pp70S6K in crude PFC synaptosomes” value is on record as “significantly increased”.
